system: liver cancer cell HepG2; assay: MTT assay, liver cancer cell HepG2; type: cell-based; details: HF 10 nM, lactone 160 μM, alone or combined, 24 hours
Experimental: (§1) Liver cancer cell line HepG2 was seeded on a 96-well plate, with 100 μl of cell suspension in each well. The culture medium was DMEM supplemented with 10% FBS and 2 mM glutamate. […] 24 hours after adding the compound, the cell survival rate was assessed using the MTT assay, and the combination index (CI) of the combined pharmaceutical of HF and ATS was calculated using the Calcusyn software.

SMILES	Cell death rate (%)
C[C@H]1[C@H](OC(=O)CCC(=O)O)O[C@@H]2O[C@@]3(C)CC[C@H]4[C@H](C)CC[C@@H]1[C@@]24OO3 [ASU, artesunate]	0.95 ± 0.72%
C[C@@H]1CC[C@H]2[C@@H](C)C(=O)O[C@@H]3O[C@@]4(C)CC[C@@H]1[C@]32OO4 [ATS, Artemisinin]	0.90 ± 0.95%

same assay, conditions: HF 20 nM, lactone 320 μM, alone or combined, 24 hours

SMILES	Cell death rate (%)
C[C@H]1[C@H](OC(=O)CCC(=O)O)O[C@@H]2O[C@@]3(C)CC[C@H]4[C@H](C)CC[C@@H]1[C@@]24OO3 [ASU, artesunate]	1.86 ± 0.09%
C[C@@H]1CC[C@H]2[C@@H](C)C(=O)O[C@@H]3O[C@@]4(C)CC[C@@H]1[C@]32OO4 [ATS, Artemisinin]	1.60 ± 0.08%

same assay, conditions: HF 40 nM, lactone 640 μM, alone or combined, 24 hours

SMILES	Cell death rate (%)
C[C@H]1[C@H](OC(=O)CCC(=O)O)O[C@@H]2O[C@@]3(C)CC[C@H]4[C@H](C)CC[C@@H]1[C@@]24OO3 [ASU, artesunate]	6.57 ± 2.06%
C[C@@H]1CC[C@H]2[C@@H](C)C(=O)O[C@@H]3O[C@@]4(C)CC[C@@H]1[C@]32OO4 [ATS, Artemisinin]	6.40 ± 2.71%

system: melanoma cell A375; assay: MTT assay, melanoma cell A375; type: cell-based; details: HF 10 nM, lactone 160 μM, alone or combined, 24 hours
Experimental: as §1, with “Melanoma” for “Liver cancer”, “A375” for “HepG2”

SMILES	Cell death rate (%)
C[C@H]1[C@H](OC(=O)CCC(=O)O)O[C@@H]2O[C@@]3(C)CC[C@H]4[C@H](C)CC[C@@H]1[C@@]24OO3 [ASU, artesunate]	16.15 ± 4.90%
C[C@@H]1CC[C@H]2[C@@H](C)C(=O)O[C@@H]3O[C@@]4(C)CC[C@@H]1[C@]32OO4 [ATS, Artemisinin]	16.50 ± 4.30%

same assay, conditions: HF 20 nM, lactone 320 μM, alone or combined, 24 hours

SMILES	Cell death rate (%)
C[C@@H]1CC[C@H]2[C@@H](C)C(=O)O[C@@H]3O[C@@]4(C)CC[C@@H]1[C@]32OO4 [ATS, Artemisinin]	26.30 ± 1.33%

same assay, conditions: HF 40 nM, lactone 640 μM, alone or combined, 24 hours

SMILES	Cell death rate (%)
C[C@H]1[C@H](OC(=O)CCC(=O)O)O[C@@H]2O[C@@]3(C)CC[C@H]4[C@H](C)CC[C@@H]1[C@@]24OO3 [ASU, artesunate]	47.59 ± 3.93%
C[C@@H]1CC[C@H]2[C@@H](C)C(=O)O[C@@H]3O[C@@]4(C)CC[C@@H]1[C@]32OO4 [ATS, Artemisinin]	46.50 ± 3.57%

system: gastric cancer cell MGC803; assay: MTT assay, gastric cancer cell MGC803; type: cell-based; details: HF 10 nM, lactone 160 μM, alone or combined, 24 hours
Experimental: as §1, with “Gastric” for “Liver”, “MGC803” for “HepG2”

SMILES	Cell death rate (%)
C[C@H]1[C@H](OC(=O)CCC(=O)O)O[C@@H]2O[C@@]3(C)CC[C@H]4[C@H](C)CC[C@@H]1[C@@]24OO3 [ASU, artesunate]	1.15 ± 0.92%
C[C@@H]1CC[C@H]2[C@@H](C)C(=O)O[C@@H]3O[C@@]4(C)CC[C@@H]1[C@]32OO4 [ATS, Artemisinin]	1.00 ± 3.31%

same assay, conditions: HF 20 nM, lactone 320 μM, alone or combined, 24 hours

SMILES	Cell death rate (%)
C[C@H]1[C@H](OC(=O)CCC(=O)O)O[C@@H]2O[C@@]3(C)CC[C@H]4[C@H](C)CC[C@@H]1[C@@]24OO3 [ASU, artesunate]	5.31 ± 1.69%
C[C@@H]1CC[C@H]2[C@@H](C)C(=O)O[C@@H]3O[C@@]4(C)CC[C@@H]1[C@]32OO4 [ATS, Artemisinin]	4.60 ± 5.51%

same assay, conditions: HF 40 nM, lactone 640 μM, alone or combined, 24 hours

SMILES	Cell death rate (%)
C[C@H]1[C@H](OC(=O)CCC(=O)O)O[C@@H]2O[C@@]3(C)CC[C@H]4[C@H](C)CC[C@@H]1[C@@]24OO3 [ASU, artesunate]	43.57 ± 2.56%
C[C@@H]1CC[C@H]2[C@@H](C)C(=O)O[C@@H]3O[C@@]4(C)CC[C@@H]1[C@]32OO4 [ATS, Artemisinin]	40.00 ± 3.18%

system: colon cancer cell HCT-116; assay: MTT assay, colon cancer cell HCT-116; type: cell-based, Human; details: HF 10 nM, ATS/DAT/ASU/ATM 160 μM, alone or combined, 24 hours
Experimental: as §1, with “Human colon” for “Liver”, “HCT-116” for “HepG2”, “software. Tumor cell survival rate=the OD value of the experimental group/the OD value of the control group×100%” for “software.”

SMILES	Cell death rate (%)
C[C@H]1[C@H](OC(=O)CCC(=O)O)O[C@@H]2O[C@@]3(C)CC[C@H]4[C@H](C)CC[C@@H]1[C@@]24OO3 [ASU, artesunate]	35.15 ± 3.45%
C[C@@H]1CC[C@H]2[C@@H](C)C(=O)O[C@@H]3O[C@@]4(C)CC[C@@H]1[C@]32OO4 [ATS, Artemisinin]	35.89 ± 3.91%

same assay, conditions: HF 20 nM, ATS/DAT/ASU/ATM 320 μM, alone or combined, 24 hours

SMILES	Cell death rate (%)
C[C@H]1[C@H](OC(=O)CCC(=O)O)O[C@@H]2O[C@@]3(C)CC[C@H]4[C@H](C)CC[C@@H]1[C@@]24OO3 [ASU, artesunate]	48.31 ± 3.69%
C[C@@H]1CC[C@H]2[C@@H](C)C(=O)O[C@@H]3O[C@@]4(C)CC[C@@H]1[C@]32OO4 [ATS, Artemisinin]	48.31 ± 3.61%

same assay, conditions: HF 40 nM, ATS/DAT/ASU/ATM 640 μM, alone or combined, 24 hours

SMILES	Cell death rate (%)
C[C@H]1[C@H](OC(=O)CCC(=O)O)O[C@@H]2O[C@@]3(C)CC[C@H]4[C@H](C)CC[C@@H]1[C@@]24OO3 [ASU, artesunate]	53.52 ± 2.46%
C[C@@H]1CC[C@H]2[C@@H](C)C(=O)O[C@@H]3O[C@@]4(C)CC[C@@H]1[C@]32OO4 [ATS, Artemisinin]	54.42 ± 2.44%

system: breast cancer cell MCF-7; assay: MTT assay, breast cancer cell MCF-7; type: cell-based; details: HF 10 nM, lactone 160 μM, alone or combined, 24 hours
Experimental: as §1, with “Breast” for “Liver”, “MCF-7” for “HepG2”

SMILES	Cell death rate (%)
C[C@H]1[C@H](OC(=O)CCC(=O)O)O[C@@H]2O[C@@]3(C)CC[C@H]4[C@H](C)CC[C@@H]1[C@@]24OO3 [ASU, artesunate]	9.15 ± 0.92%
C[C@@H]1CC[C@H]2[C@@H](C)C(=O)O[C@@H]3O[C@@]4(C)CC[C@@H]1[C@]32OO4 [ATS, Artemisinin]	9.50 ± 0.77%

same assay, conditions: HF 20 nM, lactone 320 μM, alone or combined, 24 hours

SMILES	Cell death rate (%)
C[C@H]1[C@H](OC(=O)CCC(=O)O)O[C@@H]2O[C@@]3(C)CC[C@H]4[C@H](C)CC[C@@H]1[C@@]24OO3 [ASU, artesunate]	16.31 ± 1.69%
C[C@@H]1CC[C@H]2[C@@H](C)C(=O)O[C@@H]3O[C@@]4(C)CC[C@@H]1[C@]32OO4 [ATS, Artemisinin]	16.50 ± 1.47%

same assay, conditions: HF 40 nM, lactone 640 μM, alone or combined, 24 hours

SMILES	Cell death rate (%)
C[C@H]1[C@H](OC(=O)CCC(=O)O)O[C@@H]2O[C@@]3(C)CC[C@H]4[C@H](C)CC[C@@H]1[C@@]24OO3 [ASU, artesunate]	33.57 ± 2.56%
C[C@@H]1CC[C@H]2[C@@H](C)C(=O)O[C@@H]3O[C@@]4(C)CC[C@@H]1[C@]32OO4 [ATS, Artemisinin]	33.90 ± 2.00%

Source: patent publication US10973823B2, “Anti-cancer composition consisting of halofuginone and sesquiterpene lactone compounds of artemisia apiacea and use thereof” (Hong Kong Baptist University, priority 2016, dated 2021)
